# Measurements from US20240360178A1, “MACROCYCLIC IMMUNOMODULATORS” (Bristol-Myers Squibb Company, priority 2021, published 2024).
# Positions of bridges follow the written chain, without caps; N, C: chain ends. Non-standard residues stand in square brackets, D forms with d. Residues, ends and D or L forms follow the SMILES beside them. ξ: configuration not given here. Phe(3,4,5-F3) = N[C@@H](Cc1cc(F)c(F)c(F)c1)C(=O)O; Phe(4-CH2NH2) = NCc1ccc(C[C@H](N)C(=O)O)cc1; Bip = N[C@@H](Cc1ccc(-c2ccccc2)cc1)C(=O)O; Phe(3-OMe) = COc1cccc(C[C@H](N)C(=O)O)c1; Ala(cPent) = N[C@@H](CC1CCCC1)C(=O)O; NMeF = CN[C@@H](Cc1ccccc1)C(=O)O; 4Pal = N[C@@H](Cc1ccncc1)C(=O)O; Thr(3ξ) = CC(O)[C@H](N)C(=O)O; NMeA = CN[C@@H](C)C(=O)O; Nle = CCCC[C@H](N)C(=O)O; Dab = NCC[C@H](N)C(=O)O; Sar = CNCC(=O)O
# Biological target: T1, human PD-1 (Jurkat-PD-1 cells) / PE-labeled human PD-L1-Ig (Homo sapiens, UniProt Q15116)
# T1 construct: expressed in transfected cells; host or cells: Jurkat cell line over-expressing human PD-1
# Test: Jurkat-PD-1 Cell Binding High-Content Screening Assay (CBA); Jurkat hPD1-PDL1 assay
# Settings: Jurkat cell line over-expressing human PD-1; PE-labeled PD-L1-Ig 20 nM final; compound incubated 2 hours at 37° C.; read-out: Jurkat HPD1-PDL1 IC50
# Procedure, shortened: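 Cell binding by imaging: Jurkat line stably over-expressing human PD-1, compound pre-exposure 2 h at 37° C, PE-conjugated PD-L1-Ig 20 nM final, medium DMEM containing 10% FCS.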
# T1 sequence (Q15116 25-288): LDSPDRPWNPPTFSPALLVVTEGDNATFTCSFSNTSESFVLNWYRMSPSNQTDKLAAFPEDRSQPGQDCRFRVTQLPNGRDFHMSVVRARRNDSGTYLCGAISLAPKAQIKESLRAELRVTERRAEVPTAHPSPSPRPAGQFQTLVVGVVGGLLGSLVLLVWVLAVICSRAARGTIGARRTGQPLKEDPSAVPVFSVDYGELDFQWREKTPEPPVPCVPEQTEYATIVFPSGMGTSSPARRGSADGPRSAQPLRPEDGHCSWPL
row,IC50 [nM],Structure (SMILES)
1,280,CC(C)C[C@@H]1NC(=O)[C@H](Cc2c[nH]c3ccccc23)NC(=O)[C@H](CC(=O)O)NC(=O)[C@H](Cc2ccc(O)cc2)NC(=O)[C@H](Cc2ccccc2)NC(=O)CSC[C@@H](C(=O)N[C@@H](C)C(N)=O)NC(=O)[C@H](CO)NC(=O)[C@H](C(C)C)NC(=O)[C@H](CC(C)C)NC(=O)[C@H](CC(N)=O)NC(=O)[C@H](Cc2ccccc2)N(C)C(=O)[C@H](C)N(C)C(=O)[C@H](CCCNC(=N)N)NC(=O)[C@H](Cc2ccc(-c3ccccc3)cc2)NC1=O [Example 1095] ({CH2CO}-FYDWL[Bip]R[NMeA][NMeF]NLVSCA-NH2; thioether N-14)
2,280,CC(C)C[C@@H]1NC(=O)[C@H](Cc2c[nH]c3ccccc23)NC(=O)[C@H](CC(=O)O)NC(=O)[C@H](Cc2ccc(O)cc2)NC(=O)[C@H](Cc2ccccc2)NC(=O)CSC[C@@H](C(=O)N[C@@H](C)C(N)=O)NC(=O)[C@H](CO)NC(=O)[C@H](C(C)C)NC(=O)[C@H](CC(C)C)NC(=O)[C@H](CCCNC(=N)N)NC(=O)[C@H]2CCCN2C(=O)[C@H](C)N(C)C(=O)[C@H](CCCNC(=N)N)NC(=O)[C@H](Cc2ccc(-c3ccccc3)cc2)NC1=O [Example 1096] ({CH2CO}-FYDWL[Bip]R[NMeA][dP]RLVSCA-NH2; thioether N-14)
3,280,CCCC[C@@H]1NC(=O)[C@H](CC(N)=O)NC(=O)[C@H]2CCCN2C(=O)[C@H](C)N(C)C(=O)[C@H](C(C)C)NC(=O)[C@H](Cc2ccc(-c3ccccc3)cc2)NC(=O)[C@H](CC(C)C)NC(=O)[C@H](Cc2c[nH]c3ccccc23)NC(=O)[C@H](CC(=O)O)NC(=O)[C@H](Cc2ccc(O)cc2)NC(=O)[C@H](Cc2ccccc2)NC(=O)CSC[C@@H](C(=O)N[C@@H](C)C(N)=O)NC(=O)[C@H]([C@@H](C)O)NC(=O)[C@H](C(C)C)NC1=O [Example 1097] ({CH2CO}-FYDWL[Bip]V[NMeA][dP]N[Nle]VTCA-NH2; thioether N-14)
4,310,"CC(C)C[C@@H]1NC(=O)[C@H](Cc2c[nH]c3ccccc23)NC(=O)[C@H](CC(=O)O)NC(=O)[C@H](Cc2ccc(O)cc2)NC(=O)[C@H](Cc2cc(F)c(F)c(F)c2)NC(=O)CSC[C@@H](C(=O)NCC(N)=O)NC(=O)[C@H](CO)NC(=O)[C@H](C(C)C)NC(=O)[C@H](CC(C)C)NC(=O)[C@H](CC(N)=O)NC(=O)CN(C)C(=O)[C@H](C)N(C)C(=O)[C@H](C(C)C)NC(=O)[C@H](Cc2ccc(-c3ccccc3)cc2)NC1=O [Example 1098] ({CH2CO}-[Phe(3,4,5-F3)]YDWL[Bip]V[NMeA][Sar]NLVSCG-NH2; thioether N-14)"
5,310,CC(C)C[C@@H]1NC(=O)[C@H](Cc2c[nH]c3ccccc23)NC(=O)[C@H](CC(=O)O)NC(=O)[C@H](Cc2ccc(O)cc2)NC(=O)[C@H](Cc2ccccc2)NC(=O)CSC[C@@H](C(=O)N[C@@H](C)C(N)=O)NC(=O)[C@H](CO)NC(=O)[C@H](C(C)C)NC(=O)[C@H](CC(C)C)NC(=O)[C@H](CCCCN)NC(=O)CN(C)C(=O)[C@H](C)N(C)C(=O)[C@H](C(C)C)NC(=O)[C@H](Cc2ccc(-c3ccccc3)cc2)NC1=O [Example 1099] ({CH2CO}-FYDWL[Bip]V[NMeA][Sar]KLVSCA-NH2; thioether N-14)
6,310,CCCC[C@@H]1NC(=O)CSC[C@@H](C(=O)NCC(N)=O)NC(=O)[C@H](CO)NC(=O)[C@H](C(C)C)NC(=O)[C@H](CC(C)C)NC(=O)[C@H](CC(N)=O)NC(=O)CN(C)C(=O)[C@H](C)N(C)C(=O)[C@H](C(C)C)NC(=O)[C@H](Cc2ccc(-c3ccccc3)cc2)NC(=O)[C@H](CC(C)C)NC(=O)[C@H](Cc2c[nH]c3ccccc23)NC(=O)[C@H](CC(=O)O)NC(=O)[C@H](Cc2ccc(O)cc2)NC1=O [Example 1100] ({CH2CO}-[Nle]YDWL[Bip]V[NMeA][Sar]NLVSCG-NH2; thioether N-14)
7,300,CC(C)C[C@@H]1NC(=O)[C@H](Cc2c[nH]c3ccccc23)NC(=O)[C@H](CC(=O)O)NC(=O)[C@H](Cc2ccc(CN)cc2)NC(=O)[C@H](Cc2ccccc2)NC(=O)CSC[C@@H](C(=O)N[C@@H](C)C(N)=O)NC(=O)[C@H](CO)NC(=O)[C@H](C(C)C)NC(=O)[C@H](CC(C)C)NC(=O)[C@H](CC(N)=O)NC(=O)CN(C)C(=O)[C@H](C)N(C)C(=O)[C@H](C(C)C)NC(=O)[C@H](Cc2ccc(-c3ccccc3)cc2)NC1=O [Example 1101] ({CH2CO}-F[Phe(4-CH2NH2)]DWL[Bip]V[NMeA][Sar]NLVSCA-NH2; thioether N-14)
8,310,CC(C)C[C@@H]1NC(=O)[C@H](Cc2c[nH]c3ccccc23)NC(=O)[C@H](CC(=O)O)NC(=O)[C@H](Cc2ccc(O)cc2)NC(=O)[C@H](Cc2ccccc2)NC(=O)CSC[C@@H](C(=O)N[C@@H](C)C(N)=O)NC(=O)[C@H](CO)NC(=O)[C@H](C(C)C)NC(=O)[C@H](CC2CCCC2)NC(=O)[C@H](CC(N)=O)NC(=O)CN(C)C(=O)[C@H](C)N(C)C(=O)[C@H](C(C)C)NC(=O)[C@H](Cc2ccc(-c3ccccc3)cc2)NC1=O [Example 1102] ({CH2CO}-FYDWL[Bip]V[NMeA][Sar]N[Ala(cPent)]VSCA-NH2; thioether N-14)
9,310,CC(C)C[C@@H]1NC(=O)[C@H](Cc2c[nH]c3ccccc23)NC(=O)[C@H](CC(=O)O)NC(=O)[C@H](Cc2ccc(O)cc2)NC(=O)[C@H](Cc2ccccc2)NC(=O)CSC[C@@H](C(=O)N[C@@H](CCN)C(N)=O)NC(=O)[C@H](CO)NC(=O)[C@H](C(C)C)NC(=O)[C@H](CC(C)C)NC(=O)[C@H](CC(N)=O)NC(=O)CN(C)C(=O)[C@H](C)N(C)C(=O)[C@H](C(C)C)NC(=O)[C@H](Cc2ccc(-c3ccccc3)cc2)NC1=O [Example 1103] ({CH2CO}-FYDWL[Bip]V[NMeA][Sar]NLVSC[Dab]-NH2; thioether N-14)
10,320,CC(C)C[C@@H]1NC(=O)[C@H](CC(N)=O)NC(=O)CN(C)C(=O)[C@H](C)N(C)C(=O)[C@H](C(C)C)NC(=O)[C@H](Cc2ccc(-c3ccccc3)cc2)NC(=O)[C@H](CC(C)C)NC(=O)[C@H](Cc2c[nH]c3ccccc23)NC(=O)[C@H](CC(=O)O)NC(=O)[C@H](Cc2ccc(O)cc2)NC(=O)[C@H](Cc2ccccc2)NC(=O)CSC[C@@H](C(=O)NCC(N)=O)NC(=O)[C@H](CO)NC(=O)[C@H](CCCCN)NC1=O [Example 1104] ({CH2CO}-FYDWL[Bip]V[NMeA][Sar]NLKSCG-NH2; thioether N-14)
11,330,CC(C)C[C@@H]1NC(=O)[C@H](CCCNC(=N)N)NC(=O)[C@H](Cc2ccccc2)N(C)C(=O)[C@H](C)N(C)C(=O)[C@H](CCCNC(=N)N)NC(=O)[C@H](Cc2ccc(-c3ccccc3)cc2)NC(=O)[C@H](C(C)C)NC(=O)[C@H](Cc2c[nH]c3ccccc23)NC(=O)[C@H](CC(=O)O)NC(=O)[C@H](Cc2ccc(O)cc2)NC(=O)[C@H](Cc2ccccc2)NC(=O)CSC[C@@H](C(=O)N[C@@H](CCC(=O)O)C(N)=O)NC(=O)[C@H](CO)NC(=O)[C@H](C(C)C)NC1=O [Example 1105] ({CH2CO}-FYDWV[Bip]R[NMeA][NMeF]RLVSCE-NH2; thioether N-14)
12,330,COc1cccc(C[C@@H]2NC(=O)[C@H](CC(=O)O)NC(=O)[C@H](Cc3ccc(O)cc3)NC(=O)[C@H](Cc3ccccc3)NC(=O)CSC[C@@H](C(=O)N[C@@H](C)C(N)=O)NC(=O)[C@H](CO)NC(=O)[C@H](C(C)C)NC(=O)[C@H](CC(C)C)NC(=O)[C@H](CC(N)=O)NC(=O)CN(C)C(=O)[C@H](C)N(C)C(=O)[C@H](C(C)C)NC(=O)[C@H](Cc3ccc(-c4ccccc4)cc3)NC(=O)[C@H](CC(C)C)NC2=O)c1 [Example 1106] ({CH2CO}-FYD[Phe(3-OMe)]L[Bip]V[NMeA][Sar]NLVSCA-NH2; thioether N-14)
13,340,CC(C)C[C@@H]1NC(=O)[C@H](Cc2c[nH]c3ccccc23)NC(=O)[C@H](CC(=O)O)NC(=O)[C@H](Cc2ccc(O)cc2)NC(=O)[C@H](Cc2ccncc2)NC(=O)CSC[C@@H](C(=O)NCC(N)=O)NC(=O)[C@H](CO)NC(=O)[C@H](C(C)C)NC(=O)[C@H](CC(C)C)NC(=O)[C@H](CC(N)=O)NC(=O)CN(C)C(=O)[C@H](C)N(C)C(=O)[C@H](C(C)C)NC(=O)[C@H](Cc2ccc(-c3ccccc3)cc2)NC1=O [Example 1107] ({CH2CO}-[4Pal]YDWL[Bip]V[NMeA][Sar]NLVSCG-NH2; thioether N-14)
14,340,CC(C)C[C@@H]1NC(=O)[C@H](Cc2c[nH]c3ccccc23)NC(=O)[C@H](CC(=O)O)NC(=O)[C@H](Cc2ccc(O)cc2)NC(=O)[C@H](Cc2ccccc2)NC(=O)CSC[C@@H](C(=O)N[C@@H](C)C(N)=O)NC(=O)[C@H](CO)NC(=O)[C@H](C(C)C)NC(=O)[C@H](CC(C)C)NC(=O)[C@H](CCC(=O)O)NC(=O)CN(C)C(=O)[C@H](C)N(C)C(=O)[C@H](C(C)C)NC(=O)[C@H](Cc2ccc(-c3ccccc3)cc2)NC1=O [Example 1108] ({CH2CO}-FYDWL[Bip]V[NMeA][Sar]ELVSCA-NH2; thioether N-14)
15,350,CC(C)C[C@@H]1NC(=O)[C@H](Cc2c[nH]c3ccccc23)NC(=O)[C@H](CC(=O)O)NC(=O)[C@H](Cc2ccc(O)cc2)NC(=O)[C@H](Cc2ccccc2)NC(=O)CSC[C@@H](C(=O)NCC(N)=O)NC(=O)[C@H](C(C)O)NC(=O)[C@H](C(C)C)NC(=O)[C@H](CC(C)C)NC(=O)[C@H](CC(N)=O)NC(=O)CN(C)C(=O)[C@H](C)N(C)C(=O)[C@H](C(C)C)NC(=O)[C@H](Cc2ccc(-c3ccccc3)cc2)NC1=O (stereo partly shown) [Example 1109] ({CH2CO}-FYDWL[Bip]V[NMeA][Sar]NLV[Thr(3ξ)]CG-NH2; thioether N-14)
16,350,CC(C)C[C@@H]1NC(=O)[C@H](Cc2c[nH]c3ccccc23)NC(=O)[C@H](CC(=O)O)NC(=O)[C@H](Cc2ccc(O)cc2)NC(=O)[C@H](Cc2ccccc2)NC(=O)CSC[C@@H](C(=O)NCC(N)=O)NC(=O)[C@H](C)NC(=O)[C@H](C(C)C)NC(=O)[C@H](CC(C)C)NC(=O)[C@H](CC(N)=O)NC(=O)CN(C)C(=O)[C@H](C)N(C)C(=O)[C@H](C(C)C)NC(=O)[C@H](Cc2ccc(-c3ccccc3)cc2)NC1=O [Example 1110] ({CH2CO}-FYDWL[Bip]V[NMeA][Sar]NLVACG-NH2; thioether N-14)
